Measurements: publication PMC7960611, “A phase 1 study of crenigacestat (LY3039478), the Notch inhibitor, in Japanese patients with advanced solid tumors” (Investigational New Drugs, 2020)
Several values for one entry are separate records, joined by “and”; a condition that tells them apart may be missing. Equal values may be shown once. Entries after “also recorded” stand apart in the source; their conditions may differ. Read-outs that look alike come from different tables or passages of the source.

Legend:
[1] = test system: non-Japanese patients with advanced or metastatic cancers; set-up: method as in PMID 30060061; details: TIW during a 28-day cycle; cited from earlier work
[2] = test system: Japanese patients with advanced solid tumors; assay: Safety assessment: adverse events (CTCAE v 4.0), DLT/DLET, phase 1 dose escalation; type: in vivo, human
Description: The study consisted of 2 dose levels of crenigacestat (25 mg and 50 mg), administered orally TIW prior to a meal. A cycle was defined as 28 days. Patients were admitted to the investigational site for 4 weeks through the entire first cycle but were discharged and managed on an outpatient basis on or after day 15 upon investigator discretion. The planned duration of treatment was not fixed. Treatment continued until disease progression, development of unacceptable toxicity, or any other discontinuation criteria were met.
Data were evaluated on an ongoing basis until the tolerability of crenigacestat for 50 mg was confirmed. Safety data, in particular adverse events (AEs), were the primary criteria for dose escalation. Dose escalation was driven for each treatment combination using the 3 + 3 method. Transition of dose level (from 25 to 50 mg) proceeded if the frequency of dose-limiting toxicity (DLT) observed in cycle 1 was <33% of patients in the first dose level (25 mg). For DLTs, an evaluable patient was defined as a patient who received ≥75% of the planned dose in cycle 1 or a patient who experienced DLT in cycle 1.
Adverse events were collected throughout the study and coded using Medical Dictionary for Regulatory Activities (MedDRA) terms (Version 22.0). […]

[3] = Pharmacokinetics: plasma concentrations by LC-MS/MS, noncompartmental analysis; type: in vivo; details: human; for AUC(0-inf) / Cmax / AUC(0-t): geometric mean (%CV); for AUC(0-t): read-out: AUC0–48
Description: All patients who received at least 1 dose of the study drug, and had sufficient samples collected, were included in the PK analysis. […] Plasma concentrations of crenigacestat were quantified using a validated liquid chromatography-tandem mass spectrometry (LC-MS/MS) assay. The PK parameters for crenigacestat were calculated by standard noncompartmental methods of analysis. The primary PK parameters for analysis were maximum plasma concentration (Cmax) and area under the plasma concentration-time curve (AUC) from time zero to infinity or over 1 dosing interval at steady state of crenigacestat.

[4] = test system: advanced solid tumors in Japanese patients; assay: Efficacy assessment: tumor response (RECIST v1.1); type: in vivo, human
Description: Tumor response, including overall response rate, was measured using RECIST v1.1 [12] or the Response Assessment in Neuro-Oncology criteria for glioblastoma. Patient’s full extent of disease was also assessed via evaluation of performance status (ECOG). Where applicable, tumor measurements were performed by positron emission tomography response criteria of the European Organization for Research and Treatment of Cancer, as well as evaluation of tumor markers. To confirm objective responses, all lesions were radiologically assessed and the same radiologic method used at baseline and for the initial response determination was repeated at least 4 weeks following the initial observation of an objective response.

[5] = po, 25 mg, Day 1 (Dose 1), 25 mg oral TIW
[6] = po, 25 mg, Day 22 (Dose 10), 25 mg oral TIW
[7] = po, 50 mg, Day 1 (Dose 1), 50 mg oral TIW
[8] = po, 50 mg, Day 22 (Dose 10), 50 mg oral TIW

Structure (SMILES): C[C@H](NC(=O)CCC(F)(F)F)C(=O)N[C@@H]1C(=O)N(CCO)c2ncccc2-c2ccccc21 [Crenigacestat, crenigacestat]
- Recommended phase 2 dose, monotherapy [1]: 50 mg
- Serious adverse events (SAEs), discontinuation or death due to an AE ([2]; both treatment arms, on treatment or within 30 days of discontinuation): no patients who reported any serious adverse events (SAEs), discontinued study treatment due to an adverse event (AEs) or SAE, or died due to an AE
- Recommended dose in Japanese patients ([2]; human, in vivo, po, 28 days): 50 mg
- AUC(0-inf) ([3]; Day 1 (Dose 1), 25 mg oral TIW): 1480 ng·h/mL
- AUC(0-inf) ([3]; Day 1 (Dose 1), 50 mg oral TIW): 3080 ng·h/mL
- Tmax ([3]; oral, postdose, each dose level, read-out: Median time to maximum plasma concentration (tmax)): ~2 h
- half-life ([3]; po, 25 mg and 50 mg oral TIW, read-out: Mean t1/2 (converted)): ~4 h
- Cmax [3, 5]: 324 ng/mL
- AUC(0-t) [3, 5]: 1480 ng·h/mL
- Tmax ([3]; po, 25 mg, Day 1 (Dose 1), 25 mg oral TIW, read-out: tmax, median (range)): 1.92 h
- half-life ([3]; po, 25 mg, Day 1 (Dose 1), 25 mg oral TIW, read-out: t½, geometric mean (range) (converted)): 3.64 h
- Cmax [3, 6]: 429 ng/mL
- AUC(0-t) [3, 6]: 2070 ng·h/mL
- Tmax ([3]; po, 25 mg, Day 22 (Dose 10), 25 mg oral TIW, read-out: tmax, median (range)): 1.88 h
- half-life ([3]; po, 25 mg, Day 22 (Dose 10), 25 mg oral TIW, read-out: t½, geometric mean (range) (converted)): 4.19 h
- Cmax [3, 7]: 670 ng/mL
- AUC(0-t) [3, 7]: 3080 ng·h/mL
- Tmax ([3]; po, 50 mg, Day 1 (Dose 1), 50 mg oral TIW, read-out: tmax, median (range)): 1.93 h
- half-life ([3]; po, 50 mg, Day 1 (Dose 1), 50 mg oral TIW, read-out: t½, geometric mean (range) (converted)): 3.89 h
- Cmax [3, 8]: 416 ng/mL
- AUC(0-t) [3, 8]: 2090 ng·h/mL
- Tmax ([3]; po, 50 mg, Day 22 (Dose 10), 50 mg oral TIW, read-out: tmax, median (range)): 1.94 h
- half-life ([3]; po, 50 mg, Day 22 (Dose 10), 50 mg oral TIW, read-out: t½, geometric mean (range) (converted)): 3.67 h
- Complete or partial response to the treatment ([4]; 25 mg and 50 mg oral TIW, all patients): None of the patients had a complete or partial response; also recorded: no partial or complete responses
- Best overall response: Complete response (CR) ([4]; 25 mg oral TIW (n = 4)): 0 n (%)
- Best overall response: Partial response (PR) ([4]; 25 mg oral TIW (n = 4)): 0 n (%)
- Best overall response: Progressive disease ([4]; 25 mg oral TIW (n = 4)): 4 (100.0) n (%)
- Disease control rate (CR/PR/SD) ([4]; 25 mg oral TIW (n = 4)): 0 n (%)
- Best overall response: Complete response (CR) ([4]; 50 mg oral TIW (n = 7)): 0 n (%)
- Best overall response: Partial response (PR) ([4]; 50 mg oral TIW (n = 7)): 0 n (%)
- Best overall response: Progressive disease ([4]; 50 mg oral TIW (n = 7)): 6 (85.7) n (%)
- Disease control rate (CR/PR/SD) ([4]; 50 mg oral TIW (n = 7)): 1 (14.3) n (%)
- Duration of stable disease ([4]; one patient with a desmoid tumor, 50-mg treatment arm): 22.5 months and 22.47 months
- Tumor size shrinkage ([4]; one patient with a desmoid tumor, 50-mg treatment arm, first 8 cycles): 22.4% and 22.37%
